Common to all, as to test: Kinase inhibitor library screening, PrestoBlue cell viability, 1 or 10 μM, 72 h
The subject of one assay is 501Mel cells (parental). Particulars: 501Mel Parental. The gist of the method: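 PrestoBlue viability readout after 72 h exposure to each inhibitor at 1 or 10 μM, reported relative to untreated cells as % viability. Lines tested: sensitive parental plus derivatives resistant to Vemurafenib (XP) or Dabrafenib (GP), each run at least in duplicate.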
For assay [1], the system named is 501Mel-GP cells (Dabrafenib-resistant). The settings on record: 501Mel GP.
Assay [2] deals with 501Mel-XP cells (Vemurafenib-resistant). Particulars: 501Mel XP.
The next assay relates to A375 cells (parental). The settings on record: A375 Parental.
In assay [3] the test system is A375-GP cells (Dabrafenib-resistant). Particulars: A375 GP.
Assay [4] concerns A375-XP cells (Vemurafenib-resistant). The settings on record: A375 XP.
In a further assay the test system is IGR37 cells (parental). The settings on record: IGR37 Parental.
The test system of assay [5] is IGR37-GP cells (Dabrafenib-resistant). Particulars: IGR37 GP.
Assay [6] relates to IGR37-XP cells (Vemurafenib-resistant). The settings on record: IGR37 XP.

As to `O=C(Nc1c[nH]nc1-c1nc2ccc(CN3CCOCC3)cc2[nH]1)NC1CC1` [AT9283], the “cell viability (kinase inhibitor library screening)” value in the assay on 501Mel cells (parental) (1μΜ, 72 h) is 67.5%; with 501Mel cells (parental) (10μΜ, 72 h) it was 2.0%; in [1] (1μΜ, 72 h), 72.2%; in assay [1] (10μΜ, 72 h) it was 0.469%; in assay [2] (1μΜ, 72 h) it was 63.4%; in assay [2] (10μΜ, 72 h), 0.184%. Moreover, the “cell viability (kinase inhibitor library screening)” value in the assay on A375 cells (parental) (10μΜ, 72 h) is recorded as 6.2%; in the assay with A375 cells (parental) (1μΜ, 72 h) it was 27.1%; in assay [3] (1μΜ, 72 h), 32.2%; in assay [3] (10μΜ, 72 h), 3.3%; in [4] (1μΜ, 72 h), 38.4%; in assay [4] (10μΜ, 72 h), 9.8%. Also, the “cell viability (kinase inhibitor library screening)” value with IGR37 cells (parental) (1μΜ, 72 h) is reported as 90.9%; with IGR37 cells (parental) (10μΜ, 72 h), 1.1%; in assay [5] (1μΜ, 72 h), 97.8%; in assay [5] (10μΜ, 72 h), 3.7%; in assay [6] (1μΜ, 72 h), 82.7%; in [6] (10μΜ, 72 h), 1.5%.

For the molecule MK-2206 dihydrochloride, the “cell viability (kinase inhibitor library screening)” value turned out to be 98.7% in the assay with 501Mel cells (parental) (1μΜ, 72 h); 7.6% in the assay with 501Mel cells (parental) (10μΜ, 72 h); 90.7% in assay [1] (1μΜ, 72 h); 28.3% in [1] (10μΜ, 72 h); 69.2% in assay [2] (1μΜ, 72 h); 1.7% in [2] (10μΜ, 72 h). For the same molecule, the “cell viability (kinase inhibitor library screening)” value in the assay with A375 cells (parental) (10μΜ, 72 h) stood at 74.4%; in assay [3] (1μΜ, 72 h) it was 96.2%; in assay [3] (10μΜ, 72 h) it was 66.2%; in [4] (1μΜ, 72 h), 93.8%; in [4] (10μΜ, 72 h), 54.1%; in the assay on IGR37 cells (parental) (10μΜ, 72 h), 25.6%. Besides, the “cell viability (kinase inhibitor library screening)” value in assay [5] (1μΜ, 72 h) stood at 100.0%; in assay [5] (10μΜ, 72 h) it was 15.9%; in assay [6] (1μΜ, 72 h) it was 94.6%; in assay [6] (10μΜ, 72 h), 4.2%.

Turning to `COc1cc2nccc(Oc3ccc(NC(=O)Nc4ccc(F)cc4F)c(F)c3)c2cc1OC` [Ki8751], the “cell viability (kinase inhibitor library screening)” value with 501Mel cells (parental) (1μΜ, in %) is 96.7; with 501Mel cells (parental) (10μΜ, in %) it was 85.3; in assay [1] (1μΜ, in %), 97.3; in [1] (10μΜ, in %), 80.7; in assay [2] (1μΜ, in %), 89.9; in assay [2] (10μΜ, in %), 74.9. Besides, the “cell viability (kinase inhibitor library screening)” value in the assay on A375 cells (parental) (1μΜ, in %) is 96.1; with A375 cells (parental) (10μΜ, in %), 75.1; in assay [3] (1μΜ, in %), 94.2; in assay [3] (10μΜ, in %) it was 77.5; in assay [4] (10μΜ, in %) it was 97.9; in the assay with IGR37 cells (parental) (1μΜ, in %) it was 93.0. Further, the “cell viability (kinase inhibitor library screening)” value in the assay on IGR37 cells (parental) (10μΜ, in %) is 84.9; in assay [5] (1μΜ, in %), 88.2; in assay [5] (10μΜ, in %), 88.8; in assay [6] (1μΜ, in %), 88.9; in assay [6] (10μΜ, in %), 70.9.

The values are drawn from publication PMC6364417, “Kinase inhibitor library screening identifies synergistic drug combinations effective in sensitive and resistant melanoma cells” (Journal of Experimental & Clinical Cancer Research : CR, 2019).
